Paper PMC7367283, “A PIP2 substitute mediates voltage sensor-pore coupling in KCNQ activation” (Communications Biology, 2020)
Where “and” joins values, the source holds several entries; their conditions need not be identical. Equal entries are not always repeated.

Molecular target: KCNQ2/KCNQ3* (Homo sapiens, UniProt O43525+O43526, A315T)
Assay: Two-electrode voltage clamp of KCNQ2+KCNQ3* in Xenopus oocytes
Assay type: cell-based
Settings: Q2/Q3*, individual oocytes
Excerpt: KCNQ2 and KCNQ3 form a channel complex that carries M currents in neurons. Similar to KCNQ1, these KCNQ subunits require PIP2 for voltage-dependent activation. KCNQ2 alone can express functional channels in Xenopus oocytes, while KCNQ3 alone cannot. However, a single mutation, A315T, allows KCNQ3 to functionally express in Xenopus oocytes. We examined the effects of CP1 on KCNQ2, KCNQ3 with mutation A315T (denoted as KCNQ3*), KCNQ2+KCNQ3, and KCNQ2+KCNQ3* expressed in Xenopus oocytes (Fig. 5a). Similar to the effects on KCNQ1 and IKs channels, CP1 changed the amplitude of currents (Fig. 5b), shifted the G–V relation to more negative voltages (Fig. 5c), and slowed the deactivation kinetics (Fig. 5d) for all of these KCNQ channels. These CP1 effects were relatively small on KCNQ2 as compared with those on other KCNQ channels, and the effects on KCNQ2/KCNQ3* and KCNQ2/KCNQ3 complexes were closer to those on KCNQ2 alone.
Fig. 5 Subtype selectivity of CP1 on KCNQ channels. a Current traces of KCNQ channels as indicated in the absence and the presence of 10 µM CP1. […]
The whole-oocyte ionic currents were recorded with a GeneClamp 500B amplifier (Axon Instruments, CA) or iTEV90 amplifier (HEKA, Germany) and then sampled at 1 kHz and low-pass-filtered at 2 kHz. […] The Kir1.1 current was recorded with a high K^+ bath solution containing (in mM) 96 KCl, 4 NaCl, 1 CaCl2, 2 MgCl2, and 10 HEPES, pH 7.3–7.4. The HCN4 current was recorded in ND66 solution containing (in mM) 66 NaCl, 32 KCl, 1.8 CaCl2, 1 MgCl2, and 5 HEPES, pH 7.6. All the other potassium channels were recorded in ND96 solution. The currents of CaV1.2 channel were recorded in 40 mM Ba^2+ bath solution containing (in mM) 40 Ba(OH)2, 50 TEA-OH, 2 KOH, and 5 HEPES, adjusted to pH 7.4 with methanesulfonic acid. […] The HCN4 currents were recorded by a test pulse between −30 and −140 mV in 10-mV step from a holding potential of −30 mV. […]

outward current (Icp1/Ictrl) (10 µM CP1, at −10 mV): 1.1575 and 0.9892 and 1.0474 and 1.088
Compound: O=S(=O)([O-])Oc1c(-c2sc3c(ccc4cccc(Cl)c43)c2OS(=O)(=O)[O-])[nH]c2ccc(Br)cc12.[Na+].[Na+] [CP1, DISODIUM 5-BROMO-2-[9-CHLORO-3-(SULFONATOOXY) NAPHTHO [1,2-B] THIEN-2-YL]-1H-INDOL-3-YL SULFATE]
∆V1/2 (10 µM CP1): 15.9435 mV and 15.3238 mV and 21.3532 mV and 15.8237 mV
τ deact at -120 mV (10 µM CP1 treated): 0.0814 s and 0.0836 s and 0.1825 s and 0.1031 s and 0.1951 s
